Laboratory results from patent US8426448B2, “1,5-diphenyl-pyrrolidin-2-one compounds as CB-1 ligands” (Eli Lilly and Company, priority 2008, dated 2013).
Where a name gives a salt, the structure may show the parent alone.

What was measured:
hCB-1 [1] = target: T1, hCB-1 (Homo sapiens, UniProt P21554); assay: hCB1-CHO agonist mode SPA GTP-γ-35S binding assay; assay type: biochemical; parameters: purchased Applied Cell Sciences, Rockville, Md; host or cells: CHO cell membranes; conditions: inverse agonism, read-out: hCB-1 SPA GTPγS CHO Membrane Agonist Relative EC50 inverse
Method: (§1) Compounds of the present invention may be tested for functional activity at the CB-1 and CB-2 receptors in both agonist and antagonist modes using SPA (Scintillation Proximity Assay) based GTP-γ-^35S binding assays. All assay components are prepared in assay buffer (20 mM HEPES, 100 mM NaCl, 5 mM MgCl2, pH 7.4) at room temperature. Semi-log dilutions of test compound are prepared in assay buffer containing BSA (0.125% final conc.) for the agonist mode assays. For the antagonist mode assays, test compounds are prepared in the same manner but also include an 80% efficacious dose of a full agonist (methanandamide). GTP-γ^35S binding for the antagonist assay may be measured in a 96 well format using a modification of an antibody capture technique previously described. (DeLapp, N W, et al. (1999) J Pharmacol Exp Ther 289:946-955.) The CB-2 receptor agonist activity may be measured using a similar method using hCB2-Sf9 membranes. The CB-1 receptor agonist activity may be measured using a whole membrane capture technique using hCB1-CHO membranes. All incubations are done at room temperature.
hCB1-CHO membrane, GDP (1 μM final conc.), and saponin (10 μg/mL final conc., Sigma, St Louis, Mo.) are combined and prepared on ice as for the antagonist assays, above. Diluted test compounds, GTP-γ-^35S ([…] final conc.) and membranes are combined in the assay plate and incubated for 30 min. Then 1 mg/well Wheatgerm Agglutinin SPA beads (GE Healthcare, Piscataway, N.J.) are added, plates are sealed and vortexed and incubate for 1 hr. before spinning and counting in the same fashion as for the antagonist assays, above.
Data are analyzed as follows: Background is subtracted from all wells. Percent agonist efficacy is determine by normalizing agonist/inverse agonist dose response data to the response obtained for a full agonist (methanandamide). Percent antagonist inhibition is calculated by first normalizing the data to the signal generated by a saturating concentration of the full agonist (methanandamide). Then the data are analyzed using a 4-parameter logistic reduced fit (Activity Base™ and XLFit3™ from IDBS, Emeryville, Calif.). Kb values are determined using a modification of the Cheng-Prusoff relationship: Kb=IC50/(1+[agonist]/EC50), where “IC50” is determined from a four parameter fit of displacement curves, “[agonist]” is the agonist challenge concentration (nM), and “EC50” is determined from a four parameter fit of a full agonist concentration response curve (Cheng and Prusoff 1973). Mean Kb values are calculated as a mean of at least three independent determinations±standard error of the mean (SEM). […]

Rat oral bioavailability = assay type: in vivo; conditions: Sprague-Dawley, plasma, fasted male SD rats, IV 0.25 mg/kg (20% Pharmasolve, 10% HPBCD, pH 3), PO 1 mg/kg (1% CMC, 0.5% SLS, 0.5% AF), mean±s.d, n=3, based on AUC0-∞
Method: Cohorts of three or four 250-450 gram male Sprague-Dawley rats or approximately 10 kg Beagle dogs (female or male) are used. […] Dogs are administered i.v. by cannulated cephalic vein and blood collections are by jugular vein. Animals are first dosed at 0.25 mg/kg i.v. and blood samples (0.2 mL) are then collected using EDTA as an anticoagulant at 0.0830, 0.25, 0.50, 1, 2, 4, 8, 12, 24, 48, 72, 96, and 120 hours. Next after at least two days and after 18-24 hours fasting, the animals are dosed at 1.0 mg/kg by oral gavage. During the course of a study the total of blood (ml) collected is not to exceed 1% of total body weight in grams. Should larger blood volumes be required, the sampled blood volume is replace with heparinized whole blood from a donor animal. When using a cross-over study design, rats receive a volume of heparinized whole blood following the final sample of each study day approximately equal to that removed during study.
Compound plasma concentrations are measured by LC/MS/MS assays. Data are then analyzed using standard non-compartmental pharmacokinetic analysis. Oral bioavailability is calculated as: (AUC0-infinity,oral/AUC0-infinity,i.v.)×(Dose,i.v./Dose,oral)×100%

hCB-1 [2] = target: T1, hCB-1; assay: hCB1-CHO antagonist mode SPA GTP-γ-35S binding assay; assay type: biochemical; parameters: purchased Applied Cell Sciences, Rockville, Md; host or cells: CHO cell membranes; conditions: antagonist mode vs methanandamide; read-out: hCB-1 SPA GTPγS CHO Membrane Antagonist Kb
Method: as §1
hCB1-CHO or rCB1-CHO membranes (Applied Cell Sciences, Rockville, Md.) and GDP (1 μM final) are added to ice cold assay buffer and homogenized. […] Plates are then centrifuged at 700×g for 10 min. and the radioactivity counted.
Data are analyzed as follows: Background is subtracted from all wells. […] Percent antagonist inhibition is calculated by first normalizing the data to the signal generated by a saturating concentration of the full agonist (methanandamide). Then the data are analyzed using a 4-parameter logistic reduced fit (Activity Base™ and XLFit3™ from IDBS, Emeryville, Calif.). Kb values are determined using a modification of the Cheng-Prusoff relationship: Kb=IC50/(1+[agonist]/EC50), where “IC50” is determined from a four parameter fit of displacement curves, “[agonist]” is the agonist challenge concentration (nM), and “EC50” is determined from a four parameter fit of a full agonist concentration response curve (Cheng and Prusoff 1973). […]

T1 sequence (P21554 whole entry): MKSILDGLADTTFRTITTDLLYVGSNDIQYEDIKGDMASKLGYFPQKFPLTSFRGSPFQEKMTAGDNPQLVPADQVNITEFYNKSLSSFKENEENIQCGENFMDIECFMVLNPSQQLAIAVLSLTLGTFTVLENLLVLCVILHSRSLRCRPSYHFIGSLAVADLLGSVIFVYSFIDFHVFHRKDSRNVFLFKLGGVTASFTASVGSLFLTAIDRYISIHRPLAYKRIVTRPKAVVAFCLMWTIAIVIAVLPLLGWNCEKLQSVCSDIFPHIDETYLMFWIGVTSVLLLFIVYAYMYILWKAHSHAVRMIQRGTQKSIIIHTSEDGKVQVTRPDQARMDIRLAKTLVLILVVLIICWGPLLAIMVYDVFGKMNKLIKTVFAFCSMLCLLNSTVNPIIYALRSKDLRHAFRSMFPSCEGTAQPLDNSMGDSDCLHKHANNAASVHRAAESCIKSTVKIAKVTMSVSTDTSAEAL

SMILES: CC(C)(N[C@@H]1C[C@H](c2cccc(C(F)(F)F)c2)N(c2ccc(OC(F)(F)F)cc2)C1=O)c1cccc(C(F)(F)F)n1 [28 HCl salt, (3R,5R)-3-[1-methyl-1-(6-trifluoromethyl-pyridin-2-yl)-ethylamino]-1-(4-trifluoromethoxy-phenyl)-5-(3-trifluoromethyl-phenyl)-pyrrolidin-2-one]
- EC50 (hCB-1 [1]): 1.27 nM
- bioavailability (Rat oral bioavailability): 40 ± 6%
- Kb (hCB-1 [2]): 0.464 nM
